Results reported in ChEMBL document CHEMBL5465560, “Selectivity Literature for EUbOPEN Chemogenomic Library” (2024).

What was measured:
[1] = biological target: Insulin receptor (Homo sapiens, UniProt P06213); test: Selectivity interaction (ProQinase) EUB0000171b INSR; details: at 1 µM
[2] = biological target: T1, Protein arginine N-methyltransferase 7 (Homo sapiens) (UniProt Q9NVM4); test: Selectivity interaction (Transferase panel (protein, RNA, and DNA methyltransferases. and EP300 (acetyltransferase))) EUB0000270b PRMT7
T1 sequence (whole entry): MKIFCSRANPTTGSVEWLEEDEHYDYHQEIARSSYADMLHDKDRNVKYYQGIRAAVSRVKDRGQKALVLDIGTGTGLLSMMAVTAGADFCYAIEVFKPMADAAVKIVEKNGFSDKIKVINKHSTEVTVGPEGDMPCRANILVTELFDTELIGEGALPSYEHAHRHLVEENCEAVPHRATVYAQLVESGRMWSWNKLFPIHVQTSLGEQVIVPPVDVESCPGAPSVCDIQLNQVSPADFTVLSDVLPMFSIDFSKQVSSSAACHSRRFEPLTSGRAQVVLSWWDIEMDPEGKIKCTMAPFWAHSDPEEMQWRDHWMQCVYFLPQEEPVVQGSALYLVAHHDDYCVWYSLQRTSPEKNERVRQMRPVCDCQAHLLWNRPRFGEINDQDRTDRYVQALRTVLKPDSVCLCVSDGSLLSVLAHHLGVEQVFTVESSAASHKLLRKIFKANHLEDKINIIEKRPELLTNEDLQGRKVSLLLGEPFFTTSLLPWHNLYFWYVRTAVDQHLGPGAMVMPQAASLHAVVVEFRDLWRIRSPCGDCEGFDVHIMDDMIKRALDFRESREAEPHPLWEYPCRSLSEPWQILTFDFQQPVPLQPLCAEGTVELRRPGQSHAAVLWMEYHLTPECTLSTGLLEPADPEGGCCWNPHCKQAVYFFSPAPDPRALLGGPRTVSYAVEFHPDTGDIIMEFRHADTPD

[3] = biological target: T2, Ephrin type-B receptor 2 (Homo sapiens) (UniProt P29323); test: Selectivity interaction (SelectScreen profiling (Invitrogen)) EUB0000607a EPHB2; details: at 2 µM
T2 sequence (whole entry): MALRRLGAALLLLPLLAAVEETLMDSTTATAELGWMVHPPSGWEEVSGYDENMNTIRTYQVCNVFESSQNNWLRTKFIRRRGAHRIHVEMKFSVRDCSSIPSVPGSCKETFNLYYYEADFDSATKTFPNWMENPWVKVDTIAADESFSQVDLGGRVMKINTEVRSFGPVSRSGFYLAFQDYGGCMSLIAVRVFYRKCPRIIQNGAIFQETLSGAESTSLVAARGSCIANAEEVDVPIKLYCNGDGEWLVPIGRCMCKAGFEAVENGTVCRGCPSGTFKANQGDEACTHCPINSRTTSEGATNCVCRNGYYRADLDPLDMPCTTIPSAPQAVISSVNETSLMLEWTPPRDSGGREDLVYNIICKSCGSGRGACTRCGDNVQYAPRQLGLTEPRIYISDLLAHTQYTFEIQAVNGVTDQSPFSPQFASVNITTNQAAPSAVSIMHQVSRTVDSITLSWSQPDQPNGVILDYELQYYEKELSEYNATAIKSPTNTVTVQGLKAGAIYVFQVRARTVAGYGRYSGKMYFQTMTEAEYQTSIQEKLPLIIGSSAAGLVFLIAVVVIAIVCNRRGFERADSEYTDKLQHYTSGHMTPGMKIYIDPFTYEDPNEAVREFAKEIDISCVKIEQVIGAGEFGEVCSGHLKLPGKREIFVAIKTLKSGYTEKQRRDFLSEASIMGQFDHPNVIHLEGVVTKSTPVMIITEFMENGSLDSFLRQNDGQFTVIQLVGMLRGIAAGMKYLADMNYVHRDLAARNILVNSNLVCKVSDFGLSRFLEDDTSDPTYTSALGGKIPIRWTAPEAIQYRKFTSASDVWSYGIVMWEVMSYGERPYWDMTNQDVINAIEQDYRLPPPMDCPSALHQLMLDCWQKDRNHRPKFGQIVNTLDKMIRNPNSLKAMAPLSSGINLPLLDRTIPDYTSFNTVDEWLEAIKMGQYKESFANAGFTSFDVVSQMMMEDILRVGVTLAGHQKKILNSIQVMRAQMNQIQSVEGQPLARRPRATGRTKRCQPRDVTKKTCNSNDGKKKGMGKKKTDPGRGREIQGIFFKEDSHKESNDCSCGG

[4] = Selectivity interaction (KinomeScan (DiscoverX)) EUB0000607a CDK2H; details: at 10 µM
[5] = biological target: Serine/threonine-protein kinase PLK2 (Homo sapiens, UniProt Q9NYY3); test: Selectivity interaction (SelectScreen profiling (Invitrogen)) EUB0000607a PLK2; details: at 2 µM
[6] = biological target: Platelet-derived growth factor receptor alpha (Homo sapiens, UniProt P16234); test: Selectivity interaction (KinomeScan (DiscoverX)) EUB0000695a PDGFRA; details: at 100 nM
[7] = biological target: T3, Rhodopsin kinase GRK1 (Homo sapiens) (UniProt Q15835); test: Selectivity interaction (KinomeScan (DiscoverX)) EUB0000045b GRK1
T3 sequence (whole entry): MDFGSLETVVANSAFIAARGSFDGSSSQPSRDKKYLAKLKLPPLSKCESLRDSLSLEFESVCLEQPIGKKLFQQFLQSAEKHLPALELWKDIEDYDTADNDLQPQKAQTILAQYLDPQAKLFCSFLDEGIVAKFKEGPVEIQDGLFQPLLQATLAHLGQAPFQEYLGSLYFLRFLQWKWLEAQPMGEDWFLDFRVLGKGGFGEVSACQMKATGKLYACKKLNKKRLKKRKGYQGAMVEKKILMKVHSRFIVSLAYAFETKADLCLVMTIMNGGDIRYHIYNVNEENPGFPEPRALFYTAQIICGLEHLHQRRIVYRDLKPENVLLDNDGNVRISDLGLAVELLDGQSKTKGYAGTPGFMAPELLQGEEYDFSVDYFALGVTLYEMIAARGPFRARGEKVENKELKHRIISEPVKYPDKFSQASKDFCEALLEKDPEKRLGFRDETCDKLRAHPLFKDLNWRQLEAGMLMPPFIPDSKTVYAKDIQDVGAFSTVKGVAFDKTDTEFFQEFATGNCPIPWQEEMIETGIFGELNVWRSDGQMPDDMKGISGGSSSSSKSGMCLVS

[8] = biological target: Serine/threonine-protein kinase PAK 3 (Homo sapiens) (UniProt O75914); test: Selectivity interaction (KinomeScan (DiscoverX)) EUB0001619a PAK3; details: at 1 µM
Serine/threonine-protein kinase PAK 3 (Homo sapiens), sequence (O75914 whole entry, looked up): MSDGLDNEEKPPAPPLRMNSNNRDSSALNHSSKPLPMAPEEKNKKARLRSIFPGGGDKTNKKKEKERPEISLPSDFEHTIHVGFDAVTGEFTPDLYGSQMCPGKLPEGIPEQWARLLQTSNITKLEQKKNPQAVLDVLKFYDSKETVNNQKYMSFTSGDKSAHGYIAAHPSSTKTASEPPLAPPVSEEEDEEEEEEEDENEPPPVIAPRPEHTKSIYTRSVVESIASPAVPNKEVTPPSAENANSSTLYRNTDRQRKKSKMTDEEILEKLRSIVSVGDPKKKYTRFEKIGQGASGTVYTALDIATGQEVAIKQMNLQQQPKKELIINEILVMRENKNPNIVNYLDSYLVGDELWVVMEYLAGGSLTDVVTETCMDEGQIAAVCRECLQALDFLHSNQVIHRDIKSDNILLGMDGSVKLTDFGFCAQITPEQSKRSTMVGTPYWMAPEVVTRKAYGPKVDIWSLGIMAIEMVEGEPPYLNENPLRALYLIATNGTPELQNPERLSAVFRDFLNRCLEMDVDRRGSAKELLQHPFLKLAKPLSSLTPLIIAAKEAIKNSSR

Serine/threonine-protein kinase PLK2, sequence (Q9NYY3 whole entry, looked up): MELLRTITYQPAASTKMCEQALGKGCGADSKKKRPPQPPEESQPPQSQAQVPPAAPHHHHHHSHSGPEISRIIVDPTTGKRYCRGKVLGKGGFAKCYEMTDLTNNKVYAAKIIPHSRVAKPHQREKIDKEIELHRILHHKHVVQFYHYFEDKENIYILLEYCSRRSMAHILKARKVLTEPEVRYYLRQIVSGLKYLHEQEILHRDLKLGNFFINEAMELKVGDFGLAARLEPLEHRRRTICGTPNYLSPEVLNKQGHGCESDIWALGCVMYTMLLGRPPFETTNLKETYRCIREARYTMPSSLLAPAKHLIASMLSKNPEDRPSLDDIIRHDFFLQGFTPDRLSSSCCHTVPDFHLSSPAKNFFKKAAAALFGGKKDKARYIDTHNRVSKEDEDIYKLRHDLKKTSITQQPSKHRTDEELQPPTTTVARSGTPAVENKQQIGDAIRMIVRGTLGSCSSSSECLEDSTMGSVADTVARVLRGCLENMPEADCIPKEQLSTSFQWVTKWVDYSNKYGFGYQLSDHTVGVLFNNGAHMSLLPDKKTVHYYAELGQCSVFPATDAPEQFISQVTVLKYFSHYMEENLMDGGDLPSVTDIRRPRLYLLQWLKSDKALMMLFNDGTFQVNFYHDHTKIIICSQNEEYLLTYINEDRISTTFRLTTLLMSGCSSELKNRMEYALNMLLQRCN
Platelet-derived growth factor receptor alpha, sequence (P16234 whole entry): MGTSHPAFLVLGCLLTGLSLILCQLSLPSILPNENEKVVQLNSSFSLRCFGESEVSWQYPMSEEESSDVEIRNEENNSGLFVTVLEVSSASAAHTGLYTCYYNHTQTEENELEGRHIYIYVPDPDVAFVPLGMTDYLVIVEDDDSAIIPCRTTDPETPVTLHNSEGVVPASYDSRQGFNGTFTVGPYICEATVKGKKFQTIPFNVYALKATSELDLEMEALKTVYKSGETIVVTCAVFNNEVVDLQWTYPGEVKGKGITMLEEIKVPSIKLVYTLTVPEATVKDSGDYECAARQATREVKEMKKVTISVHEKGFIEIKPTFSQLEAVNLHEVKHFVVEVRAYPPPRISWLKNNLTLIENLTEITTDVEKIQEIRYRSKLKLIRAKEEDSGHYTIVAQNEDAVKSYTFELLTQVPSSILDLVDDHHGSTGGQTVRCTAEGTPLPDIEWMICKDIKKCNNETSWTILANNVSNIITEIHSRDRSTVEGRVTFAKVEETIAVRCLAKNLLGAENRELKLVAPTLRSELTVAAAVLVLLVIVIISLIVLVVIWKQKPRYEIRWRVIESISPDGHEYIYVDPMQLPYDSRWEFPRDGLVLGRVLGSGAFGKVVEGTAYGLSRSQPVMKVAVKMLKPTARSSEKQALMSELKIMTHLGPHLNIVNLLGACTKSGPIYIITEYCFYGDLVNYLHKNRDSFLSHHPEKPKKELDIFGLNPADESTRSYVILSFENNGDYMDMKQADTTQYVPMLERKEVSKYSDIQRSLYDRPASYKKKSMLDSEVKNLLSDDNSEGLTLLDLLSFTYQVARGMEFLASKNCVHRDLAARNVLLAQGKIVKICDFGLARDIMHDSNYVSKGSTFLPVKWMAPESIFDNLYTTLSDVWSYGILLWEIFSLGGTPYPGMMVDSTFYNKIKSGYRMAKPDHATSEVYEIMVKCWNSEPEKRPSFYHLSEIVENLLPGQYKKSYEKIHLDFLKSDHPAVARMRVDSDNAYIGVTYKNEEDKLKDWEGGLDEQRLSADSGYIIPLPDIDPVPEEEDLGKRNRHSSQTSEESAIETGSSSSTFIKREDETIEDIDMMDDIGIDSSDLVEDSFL
Insulin receptor, sequence (P06213 28-758 limits assumed): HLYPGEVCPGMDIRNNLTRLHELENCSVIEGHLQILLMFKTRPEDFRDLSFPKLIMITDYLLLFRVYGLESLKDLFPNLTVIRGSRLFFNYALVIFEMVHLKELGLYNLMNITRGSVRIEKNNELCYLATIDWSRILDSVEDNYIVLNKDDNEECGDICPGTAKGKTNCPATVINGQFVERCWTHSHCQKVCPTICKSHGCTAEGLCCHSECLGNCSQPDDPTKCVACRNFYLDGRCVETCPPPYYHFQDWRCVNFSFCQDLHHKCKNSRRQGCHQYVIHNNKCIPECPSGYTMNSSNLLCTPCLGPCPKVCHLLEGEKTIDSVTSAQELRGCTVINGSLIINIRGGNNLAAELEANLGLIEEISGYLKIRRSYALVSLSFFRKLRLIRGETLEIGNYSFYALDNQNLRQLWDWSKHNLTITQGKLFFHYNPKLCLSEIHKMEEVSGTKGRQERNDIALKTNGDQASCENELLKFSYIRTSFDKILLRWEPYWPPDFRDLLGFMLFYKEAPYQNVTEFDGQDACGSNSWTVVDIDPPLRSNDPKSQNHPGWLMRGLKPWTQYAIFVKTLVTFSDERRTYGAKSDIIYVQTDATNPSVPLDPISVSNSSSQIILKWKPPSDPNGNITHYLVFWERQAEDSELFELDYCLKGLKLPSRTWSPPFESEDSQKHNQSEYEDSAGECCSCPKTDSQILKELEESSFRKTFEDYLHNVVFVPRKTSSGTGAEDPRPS
Insulin receptor, sequence (P06213 763-1382 limits assumed): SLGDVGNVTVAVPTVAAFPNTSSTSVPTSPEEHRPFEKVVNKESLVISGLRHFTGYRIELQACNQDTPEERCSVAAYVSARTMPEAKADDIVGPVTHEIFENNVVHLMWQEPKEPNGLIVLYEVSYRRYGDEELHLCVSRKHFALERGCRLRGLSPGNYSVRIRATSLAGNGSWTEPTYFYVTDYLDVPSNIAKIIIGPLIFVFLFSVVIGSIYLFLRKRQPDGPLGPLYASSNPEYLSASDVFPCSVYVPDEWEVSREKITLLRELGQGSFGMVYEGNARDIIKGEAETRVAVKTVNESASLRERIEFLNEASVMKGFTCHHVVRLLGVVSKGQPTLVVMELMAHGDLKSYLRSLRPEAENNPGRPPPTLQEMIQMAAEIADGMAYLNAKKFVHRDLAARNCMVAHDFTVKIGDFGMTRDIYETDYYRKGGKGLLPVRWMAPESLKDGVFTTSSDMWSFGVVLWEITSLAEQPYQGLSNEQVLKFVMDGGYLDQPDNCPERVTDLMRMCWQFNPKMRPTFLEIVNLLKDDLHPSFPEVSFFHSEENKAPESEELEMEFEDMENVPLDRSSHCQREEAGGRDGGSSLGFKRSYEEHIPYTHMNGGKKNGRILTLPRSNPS

C=CC(=O)Nc1cccc(C(=O)Nc2ccc(Nc3cc(-c4[nH]c(SC)nc4C)ccn3)cc2)c1
% of control [1]: 81%

Cc1cc(CN)cc(C)c1-c1ncn(C)c1-c1cncn1C
% activity ([2]; at 1 µM): > 90% | % activity ([2]; at 10 µM): > 80%

CNC(=O)Nc1ccc(-c2nc(N3CC4CCC(C3)O4)c3cnn(C4CCC5(CC4)OCCO5)c3n2)cc1
% of inhibition [3]: 6% | % of control [4]: 100% | % of inhibition [5]: 1%

Cc1cc(F)c(C(=O)Nc2cccc(-c3nncn3C(C)C)n2)cc1-n1cnc(C2CC2)c1
% of control [6]: 100%

C=CC(=O)Nc1cc(-n2c(=O)ccc3cnc4ccc(-c5ccc(NS(C)(=O)=O)cc5)cc4c32)ccc1C
% of control ([7]; at 1 µM): 100% | % of control ([7]; at 10 µM): 99%

N#Cc1cccc(-c2c[nH]c3ncnc(N4CCOCC4)c23)c1
% of control [8]: 74%
